From ChEMBL document CHEMBL1156098, “Antitumor agents 269. Non-aromatic ring-A neotanshinlactone analog, TNO, as a new class of potent antitumor agents” (2009)
pEC50: −log10 of the molar value.

Assays:
Assay type in all cases: functional
SK-BR-3 = assay: Cytotoxicity against human SK-BR-3 cells after 3 days by SRB assay; conditions: SK-BR-3, 72 h, read-out: ED50 (the source's name)
ZR-75-1 = assay: Cytotoxicity against human ZR-75-1 cells after 3 days by SRB assay; conditions: ZR-75-1, 72 h, read-out: ED50 (the source's name)
MDA-MB-231 = assay: Cytotoxicity against human MDA-MB-231 cells after 3 days by SRB assay; conditions: MDA-MB-231, 72 h, read-out: ED50 (the source's name)
A549 = assay: Cytotoxicity against human A549 cells after 3 days by SRB assay; conditions: A549, 72 h, read-out: ED50 (the source's name)
DU-145 = assay: Cytotoxicity against human DU145 cells after 3 days by SRB assay; conditions: DU-145, 72 h, read-out: ED50 (the source's name)
KB = assay: Cytotoxicity against human KB cells after 3 days by SRB assay; conditions: 72 h, read-out: ED50 (the source's name)
[1] = Cytotoxicity against human KBVIN cells after 3 days by SRB assay; conditions: 72 h, read-out: ED50 (the source's name)

Compound: Cc1cccc2c1ccc1c3occ(C)c3c(=O)oc21
- pEC50 (SK-BR-3): 6.10
- pEC50 (ZR-75-1): 5.96
- pEC50 (MDA-MB-231): 4.42
- pEC50 (A549): 4.27
- pEC50 (DU-145): 4.23
- pEC50 (KB): < 4.43
- pEC50 [1]: < 4.43

Compound: COc1c(-c2occ(C)c2COC(C)=O)ccc2c1CCCC2(C)C
- pEC50 (SK-BR-3): 4.85
- pEC50 (ZR-75-1): 4.81
- pEC50 (MDA-MB-231): 4.25
- pEC50 (A549): 4.54
- pEC50 (DU-145): 4.78
- pEC50 (KB): 4.60
- pEC50 [1]: 4.60

Compound: COc1c(-c2occ(C)c2C(=O)O)ccc2c1CCCC2(C)C
- pEC50 (SK-BR-3): 4.59
- pEC50 (ZR-75-1): 4.38
- pEC50 (MDA-MB-231): < 4.21
- pEC50 (A549): 4.27
- pEC50 (DU-145): 4.47
- pEC50 (KB): 4.36
- pEC50 [1]: 4.32

Compound: COCc1c(C)coc1-c1ccc2c(c1OC)CCCC2(C)C
- pEC50 (SK-BR-3): 4.73
- pEC50 (ZR-75-1): 4.84
- pEC50 (MDA-MB-231): 4.32
- pEC50 (A549): 4.71
- pEC50 (DU-145): 4.76
- pEC50 (KB): 4.94
- pEC50 [1]: 4.70

Compound: Cc1coc2c1c(=O)oc1c3c(ccc12)C(C)(C)CCC3
- pEC50 (SK-BR-3): 4.45
- pEC50 (ZR-75-1): 4.49
- pEC50 (MDA-MB-231): < 4.43
- pEC50 (A549): 4.55
- pEC50 (DU-145): 4.50
- pEC50 (KB): 4.52
- pEC50 [1]: 4.46

Compound: Cc1coc(-c2ccc3c(c2O)CCCC3(C)C)c1C(=O)O
- pEC50 (SK-BR-3): 6.15
- pEC50 (ZR-75-1): 5.77
- pEC50 (MDA-MB-231): 4.61
- pEC50 (A549): 5.48
- pEC50 (DU-145): 5.52
- pEC50 (KB): 5.33
- pEC50 [1]: 5.33

Compound: CCOc1c(-c2occ(C)c2CO)ccc2c1CCCC2(C)C
- pEC50 (SK-BR-3): 5.00
- pEC50 (ZR-75-1): 4.84
- pEC50 (MDA-MB-231): 4.40
- pEC50 (A549): 4.64
- pEC50 (DU-145): 4.76
- pEC50 (KB): 4.77
- pEC50 [1]: 4.82

Compound: CCOCc1c(C)coc1-c1ccc2c(c1OC)CCCC2(C)C
- pEC50 (SK-BR-3): 4.70
- pEC50 (ZR-75-1): 4.70
- pEC50 (MDA-MB-231): 4.37
- pEC50 (A549): 4.64
- pEC50 (DU-145): 4.75
- pEC50 (KB): 4.67
- pEC50 [1]: 4.78

Compound: Cc1coc2c1c(=O)oc1c3c(ccc12)CCC3
- pEC50 (SK-BR-3): < 4.22
- pEC50 (ZR-75-1): < 4.43
- pEC50 (MDA-MB-231): < 4.43
- pEC50 (A549): < 4.43
- pEC50 (DU-145): < 4.43
- pEC50 (KB): < 4.43
- pEC50 [1]: < 4.43

Compound: COc1c(-c2occ(C)c2CO)ccc2c1CCCC2(C)C
- pEC50 (SK-BR-3): 4.63
- pEC50 (ZR-75-1): 4.82
- pEC50 (MDA-MB-231): 4.55
- pEC50 (A549): 4.63
- pEC50 (DU-145): 4.66
- pEC50 (KB): 4.60
- pEC50 [1]: 4.66

Compound: Cc1coc(-c2ccc3c(c2O)CCC3)c1C(=O)O
- pEC50 (SK-BR-3): 4.52
- pEC50 (ZR-75-1): 4.52
- pEC50 (MDA-MB-231): 4.35
- pEC50 (A549): 4.38
- pEC50 (DU-145): 4.42
- pEC50 (KB): 4.50
- pEC50 [1]: 4.52

Compound: Cc1coc(-c2ccc3c(c2O)CCCC3(C)C)c1CO
- pEC50 (SK-BR-3): 4.67
- pEC50 (ZR-75-1): 4.59
- pEC50 (MDA-MB-231): 4.40
- pEC50 (A549): 4.61
- pEC50 (DU-145): 4.64
- pEC50 (KB): 4.66
- pEC50 [1]: 4.70

Compound: COC(=O)c1c(C)coc1-c1ccc2c(c1OC)CCCC2(C)C
- pEC50 (SK-BR-3): 4.57
- pEC50 (ZR-75-1): 4.46
- pEC50 (MDA-MB-231): 4.21
- pEC50 (A549): 4.21
- pEC50 (DU-145): 4.47
- pEC50 (KB): 4.27
- pEC50 [1]: 4.28

Compound: Cc1coc(-c2ccc3c(c2O)CCCC3)c1C(=O)O
- pEC50 (SK-BR-3): 4.49
- pEC50 (ZR-75-1): 4.66
- pEC50 (MDA-MB-231): 4.13
- pEC50 (A549): 4.24
- pEC50 (DU-145): 4.39
- pEC50 (KB): 4.30
- pEC50 [1]: 4.53

Compound: Cc1coc2c1c(=O)oc1c3c(ccc12)CCCC3
- pEC50 (SK-BR-3): 5.29
- pEC50 (ZR-75-1): 5.08
- pEC50 (MDA-MB-231): 4.41
- pEC50 (A549): 4.99
- pEC50 (DU-145): 4.49
- pEC50 (KB): 4.50
- pEC50 [1]: 4.99

Compound: CCc1cccc2c(O)c(-c3occ(C)c3C(=O)O)ccc12
- pEC50 (SK-BR-3): 5.47
- pEC50 (ZR-75-1): 6.00
- pEC50 (MDA-MB-231): < 4.43
- pEC50 (A549): 4.45
- pEC50 (DU-145): 4.53
- pEC50 (KB): 4.51
- pEC50 [1]: 4.63
